Assay results reported in ChEMBL document CHEMBL1153553, “Pharmacodynamics of RWJ-54428 against Staphylococcus aureus, Streptococcus pneumoniae, and Enterococcus faecalis in a neutropenic mouse thigh infection model” (Antimicrob Agents Chemother, 2008).

Legend:
[1] = AUC in neutropenic Swiss mouse thigh infection model at 20 mg/kg, ip; type: ADME, organism-based; design: dose 20 mg/kg, route intraperitoneal; conditions: in vivo
[2] = fT>MIC in neutropenic Swiss mouse thigh model infected with methicillin-resistant Staphylococcus aureus isolate 602 assessed as static effect on bacterial count reduction at 1.5 to 200 mg/kg, ip administered 2 hrs postinfection measured after 24 hrs; type: functional; conditions: dose mg/kg 1.5-200; route intraperitoneal
[3] = fT>MIC in neutropenic Swiss mouse thigh model infected with Streptococcus pneumoniae ATCC 49619 assessed as 1 log reduction of bacterial count at 1.5 to 200 mg/kg, ip administered 2 hrs postinfection measured after 24 hrs; type: functional; conditions: dose mg/kg 1.5-200; route intraperitoneal
Streptococcus pneumoniae [4] = assay: Antibacterial activity against penicillin-resistant Streptococcus pneumoniae SP 019 after 24 hrs by broth microdilution method; type: functional; conditions: SP 019, 24 h
Enterococcus faecalis [5] = assay: Antibacterial activity against Enterococcus faecalis infected in neutropenic Swiss mouse thigh model assessed as maximal bactericidal effect per thigh at 1.5 to 200 mg/kg, ip administered 2 hrs of postinfection measured after 24 hrs; type: functional; conditions: dose mg/kg 1.5-200; route intraperitoneal
[6] = Cmax in neutropenic Swiss mouse thigh infection model at 20 mg/kg, ip; type: ADME, organism-based; design: dose 20 mg/kg, route intraperitoneal; conditions: in vivo
Enterococcus faecalis [7] = assay: Antibacterial activity against Enterococcus faecalis ATCC 29212 after 24 hrs by broth microdilution method; type: functional; conditions: ATCC 29212, 24 h
[8] = Tmax in neutropenic Swiss mouse thigh infection model at 20 mg/kg, ip; type: ADME, organism-based; design: dose 20 mg/kg, route intraperitoneal; conditions: in vivo
[9] = Tmax in neutropenic Swiss mouse thigh infection model at 100 mg/kg, ip; type: ADME, organism-based; design: dose 100 mg/kg, route intraperitoneal; conditions: in vivo
[10] = fT>MIC in neutropenic Swiss mouse thigh model infected with methicillin-resistant Staphylococcus aureus isolate 602 assessed as 1 log reduction of bacterial count at 1.5 to 200 mg/kg, ip administered 2 hrs postinfection measured after 24 hrs; type: functional; conditions: dose mg/kg 1.5-200; route intraperitoneal
[11] = Half life in neutropenic Swiss mouse thigh infection model at 100 mg/kg, ip; type: ADME, organism-based; design: dose 100 mg/kg, route intraperitoneal; conditions: in vivo
[12] = fT>MIC in neutropenic Swiss mouse thigh model infected with methicillin-resistant Staphylococcus aureus COL assessed as static effect on bacterial count reduction at 1.5 to 200 mg/kg, ip administered 2 hrs postinfection measured after 24 hrs; type: functional; conditions: dose mg/kg 1.5-200; route intraperitoneal
[13] = fT>MIC in neutropenic Swiss mouse thigh model infected with Enterococcus faecalis EFS 007 assessed as 1 log reduction of bacterial count at 1.5 to 200 mg/kg, ip administered 2 hrs postinfection measured after 24 hrs; type: functional; conditions: dose mg/kg 1.5-200; route intraperitoneal
[14] = Half life in neutropenic Swiss mouse thigh infection model at 20 mg/kg, ip; type: ADME, organism-based; design: dose 20 mg/kg, route intraperitoneal; conditions: in vivo
[15] = fT>MIC in neutropenic Swiss mouse thigh model infected with Streptococcus pneumoniae ATCC 49619 assessed as maximal effect on bacterial count reduction at 1.5 to 200 mg/kg, ip administered 2 hrs postinfection measured after 24 hrs; type: functional; conditions: dose mg/kg 1.5-200; route intraperitoneal
[16] = Clearance with respect to bioavailability in neutropenic Swiss mouse thigh infection model at 100 mg/kg, ip; type: ADME, organism-based; conditions: in vivo
[17] = fT>MIC in neutropenic Swiss mouse thigh model infected with Enterococcus faecalis ATCC 29212 assessed as maximal effect on bacterial count reduction at 1.5 to 200 mg/kg, ip administered 2 hrs postinfection measured after 24 hrs; type: functional; conditions: dose mg/kg 1.5-200; route intraperitoneal
[18] = fT>MIC in neutropenic Swiss mouse thigh model infected with Streptococcus pneumoniae ATCC 49619 assessed as static effect on bacterial count reduction at 1.5 to 200 mg/kg, ip administered 2 hrs postinfection measured after 24 hrs; type: functional; conditions: dose mg/kg 1.5-200; route intraperitoneal
Streptococcus pneumoniae [19] = assay: Antibacterial activity against Streptococcus pneumoniae infected in neutropenic Swiss mouse thigh model assessed as maximal bactericidal effect per thigh at 1.5 to 200 mg/kg, ip administered 2 hrs of postinfection measured after 24 hrs; type: functional; conditions: dose mg/kg 1.5-200; route intraperitoneal
Staphylococcus aureus [20] = assay: Antibacterial activity against methicillin-resistant Staphylococcus aureus COL after 24 hrs by broth microdilution method; type: functional
[21] = fT>MIC in neutropenic Swiss mouse thigh model infected with penicillin-resistant Streptococcus pneumoniae SP 019 assessed as static effect on bacterial count reduction at 1.5 to 200 mg/kg, ip administered 2 hrs postinfection measured after 24 hrs; type: functional; conditions: dose mg/kg 1.5-200; route intraperitoneal
[22] = Apparent volume of distribution with respect to bioavailability in neutropenic Swiss mouse thigh infection model at 20 mg/kg, ip; type: ADME, organism-based; conditions: in vivo, read-out: Vc/F
[23] = Protein binding in neutropenic Swiss mouse thigh infection model serum at 20 mg/kg, ip by ultrafiltration; type: ADME, organism-based; design: dose 20 mg/kg, route intraperitoneal; conditions: read-out: PB (converted)
[24] = fT>MIC in neutropenic Swiss mouse thigh model infected with Enterococcus faecalis ATCC 29212 assessed as static effect on bacterial count reduction at 1.5 to 200 mg/kg, ip administered 2 hrs postinfection measured after 24 hrs; type: functional; conditions: dose mg/kg 1.5-200; route intraperitoneal
[25] = Protein binding in neutropenic Swiss mouse thigh infection model serum at 100 mg/kg, ip by ultrafiltration; type: ADME, organism-based; design: dose 100 mg/kg, route intraperitoneal; conditions: read-out: PB (converted)
[26] = fT>MIC in neutropenic Swiss mouse thigh model infected with Enterococcus faecalis EFS 007 assessed as static effect on bacterial count reduction at 1.5 to 200 mg/kg, ip administered 2 hrs postinfection measured after 24 hrs; type: functional; conditions: dose mg/kg 1.5-200; route intraperitoneal
[27] = fT>MIC in neutropenic Swiss mouse thigh model infected with Enterococcus faecalis ATCC 29212 assessed as 1 log reduction of bacterial count at 1.5 to 200 mg/kg, ip administered 2 hrs postinfection measured after 24 hrs; type: functional; conditions: dose mg/kg 1.5-200; route intraperitoneal
Enterococcus faecalis [28] = assay: Antibacterial activity against Enterococcus faecalis EFS 007 after 24 hrs by broth microdilution method; type: functional; conditions: EFS 007, 24 h
[29] = fT>MIC in neutropenic Swiss mouse thigh model infected with methicillin-resistant Staphylococcus aureus 076 assessed as maximal effect on bacterial count reduction at 1.5 to 200 mg/kg, ip administered 2 hrs postinfection measured after 24 hrs; type: functional; conditions: dose mg/kg 1.5-200; route intraperitoneal
Staphylococcus aureus [30] = assay: Antibacterial activity against methicillin-resistant Staphylococcus aureus infected in neutropenic Swiss mouse thigh model assessed as maximal bactericidal effect per thigh at 1.5 to 200 mg/kg, ip administered 2 hrs of postinfection measured after 24 hrs; type: functional; conditions: dose mg/kg 1.5-200; route intraperitoneal
[31] = fT>MIC in neutropenic Swiss mouse thigh model infected with methicillin-resistant Staphylococcus aureus isolate 609 assessed as maximal effect on bacterial count reduction at 1.5 to 200 mg/kg, ip administered 2 hrs postinfection measured after 24 hrs; type: functional; conditions: dose mg/kg 1.5-200; route intraperitoneal
Streptococcus pneumoniae [32] = assay: Antibacterial activity against Streptococcus pneumoniae ATCC 49619 after 24 hrs by broth microdilution method; type: functional; conditions: ATCC 49619, 24 h
[33] = fT>MIC in neutropenic Swiss mouse thigh model infected with methicillin-resistant Staphylococcus aureus isolate 604 assessed as static effect on bacterial count reduction at 1.5 to 200 mg/kg, ip administered 2 hrs postinfection measured after 24 hrs; type: functional; conditions: dose mg/kg 1.5-200; route intraperitoneal
[34] = fT>MIC in neutropenic Swiss mouse thigh model infected with methicillin-resistant Staphylococcus aureus isolate 609 assessed as static effect on bacterial count reduction at 1.5 to 200 mg/kg, ip administered 2 hrs postinfection measured after 24 hrs; type: functional; conditions: dose mg/kg 1.5-200; route intraperitoneal
[35] = fT>MIC in neutropenic Swiss mouse thigh model infected with penicillin-resistant Streptococcus pneumoniae SP 019 assessed as 1 log reduction of bacterial count at 1.5 to 200 mg/kg, ip administered 2 hrs postinfection measured after 24 hrs; type: functional; conditions: dose mg/kg 1.5-200; route intraperitoneal
Staphylococcus aureus [36] = assay: Antibacterial activity against methicillin-resistant Staphylococcus aureus isolate 604 after 24 hrs by broth microdilution method; type: functional; conditions: isolate 604, 24 h
Staphylococcus aureus [37] = assay: Antibacterial activity against methicillin-resistant Staphylococcus aureus isolate 609 after 24 hrs by broth microdilution method; type: functional; conditions: isolate 609, 24 h
[38] = Apparent volume of distribution with respect to bioavailability in neutropenic Swiss mouse thigh infection model at 100 mg/kg, ip; type: ADME, organism-based; conditions: in vivo, read-out: Vc/F
[39] = Clearance with respect to bioavailability in neutropenic Swiss mouse thigh infection model at 20 mg/kg, ip; type: ADME, organism-based; conditions: in vivo
[40] = Cmax in neutropenic Swiss mouse thigh infection model at 100 mg/kg, ip; type: ADME, organism-based; design: dose 100 mg/kg, route intraperitoneal; conditions: in vivo
[41] = fT>MIC in neutropenic Swiss mouse thigh model infected with methicillin-resistant Staphylococcus aureus COL assessed as 1 log reduction of bacterial count at 1.5 to 200 mg/kg, ip administered 2 hrs postinfection measured after 24 hrs; type: functional; conditions: dose mg/kg 1.5-200; route intraperitoneal
[42] = fT>MIC in neutropenic Swiss mouse thigh model infected with methicillin-resistant Staphylococcus aureus COL assessed as maximal effect on bacterial count reduction at 1.5 to 200 mg/kg, ip administered 2 hrs postinfection measured after 24 hrs; type: functional; conditions: dose mg/kg 1.5-200; route intraperitoneal
Staphylococcus aureus [43] = assay: Antibacterial activity against methicillin-resistant Staphylococcus aureus isolate 602 after 24 hrs by broth microdilution method; type: functional; conditions: isolate 602, 24 h
[44] = AUC in neutropenic Swiss mouse thigh infection model at 100 mg/kg, ip; type: ADME, organism-based; design: dose 100 mg/kg, route intraperitoneal; conditions: in vivo
[45] = fT>MIC in neutropenic Swiss mouse thigh model infected with Enterococcus faecalis EFS 007 assessed as maximal effect on bacterial count reduction at 1.5 to 200 mg/kg, ip administered 2 hrs postinfection measured after 24 hrs; type: functional; conditions: dose mg/kg 1.5-200; route intraperitoneal
[46] = fT>MIC in neutropenic Swiss mouse thigh model infected with methicillin-resistant Staphylococcus aureus isolate 602 assessed as maximal effect on bacterial count reduction at 1.5 to 200 mg/kg, ip administered 2 hrs postinfection measured after 24 hrs; type: functional; conditions: dose mg/kg 1.5-200; route intraperitoneal
[47] = fT>MIC in neutropenic Swiss mouse thigh model infected with Streptococcus pneumoniae ATCC 49619 assessed as 2 log reduction of bacterial count at 1.5 to 200 mg/kg, ip administered 2 hrs postinfection measured after 24 hrs; type: functional; conditions: dose mg/kg 1.5-200; route intraperitoneal
[48] = fT>MIC in neutropenic Swiss mouse thigh model infected with methicillin-resistant Staphylococcus aureus 076 assessed as static effect on bacterial count reduction at 1.5 to 200 mg/kg, ip administered 2 hrs postinfection measured after 24 hrs; type: functional; conditions: dose mg/kg 1.5-200; route intraperitoneal
Staphylococcus aureus [49] = assay: Antibacterial activity against methicillin-resistant Staphylococcus aureus 076 after 24 hrs by broth microdilution method; type: functional; conditions: Staphylococcus aureus, 076, 24 h

## CS(=O)(=O)O.NCCSCc1cnccc1SC1=C(C(=O)O)N2C(=O)[C@@H](NC(=O)/C(=N\O)c3nc(N)sc3Cl)[C@H]2SC1
[1]
  AUC: 16600 ng·h/mL
[2]
  fT>MIC: 17%
[3]
  fT>MIC: 21%
Streptococcus pneumoniae [4]
  MIC: 0.5 µg/mL
Enterococcus faecalis [5]
  log10cfu: -1.65
[6]
  Cmax: 47300 ng/mL
Enterococcus faecalis [7]
  MIC: 0.06 µg/mL
[8]
  Tmax: 5.4 min
[9]
  Tmax: 15.6 min
[10]
  fT>MIC: 20%
[11]
  half-life: 19.8 min
[12]
  fT>MIC: 14%
[13]
  fT>MIC: 56%
[14]
  half-life: 10.2 min
[15]
  fT>MIC: 28%
[16]
  CL/F: 15 mL/min/kg
[17]
  fT>MIC: 60%
[18]
  fT>MIC: 18%
Streptococcus pneumoniae [19]
  log10cfu: -3.75
Staphylococcus aureus [20]
  MIC: 1 µg/mL
[21]
  fT>MIC: 16%
[22]
  Vd/F: 0.3 L/kg
[23]
  fraction unbound: 0.4
[24]
  fT>MIC: 30%
[25]
  fraction unbound: 0.4
[26]
  fT>MIC: 46%
[27]
  fT>MIC: 48%
Enterococcus faecalis [28]
  MIC: 0.125 µg/mL
[29]
  fT>MIC: 32%
Staphylococcus aureus [30]
  log10cfu: -2.83
[31]
  fT>MIC: 22%
Streptococcus pneumoniae [32]
  MIC: 0.03 µg/mL
[33]
  fT>MIC: 20%
[34]
  fT>MIC: 16%
[35]
  fT>MIC: 22%
Staphylococcus aureus [36]
  MIC: 0.5 µg/mL
Staphylococcus aureus [37]
  MIC: 0.5 µg/mL
[38]
  Vd/F: 0.44 L/kg
[39]
  CL/F: 20 mL/min/kg
[40]
  Cmax: 133 µg/mL
[41]
  fT>MIC: 20%
[42]
  fT>MIC: 36%
Staphylococcus aureus [43]
  MIC: 0.5 µg/mL
[44]
  AUC: 108 µg·h/mL
[45]
  fT>MIC: 60%
[46]
  fT>MIC: 24%
[47]
  fT>MIC: 23%
[48]
  fT>MIC: 16%
Staphylococcus aureus [49]
  MIC: 1 µg/mL
